# Calls of active or inactive are those of the source. The rule behind the calls is not given here.
# Test system: not listed separately
# Experiment: Plasma protein binding in human
# Type: ADME, cell-free
# Details: read-out: PPB (converted)
row,SMILES,fraction unbound
1,COCCOc1ccc([C@H]2C[C@@H](C(F)(F)F)n3ncc(C(=O)NCc4ccc(F)cn4)c3N2)cc1,0.122
2,COc1ccc(CNC(=O)c2cnn3c2N[C@@H](c2ccc(C)cc2)C[C@H]3C(F)(F)F)cn1,< 0.01
3,Cc1ccc([C@H]2C[C@@H](C(F)(F)F)n3ncc(C(=O)NCc4ccc(F)cc4)c3N2)nc1,0.039
4,Cc1ccc([C@H]2C[C@@H](C(F)(F)F)n3ncc(C(=O)NCc4ccc(F)cc4)c3N2)o1,< 0.01
5,Cc1ccc([C@H]2C[C@@H](C(F)(F)F)n3ncc(C(=O)NCc4ccc(F)cc4)c3N2)cc1,< 0.01

# Test system: not listed separately
# Experiment: Ratio of Cmax in mouse lung to Cmax in mouse plasma at 25 mg/kg, po
# Type: ADME, organism-based
# Design: dose 25 mg/kg, route oral
# Details: not given
row,SMILES,Kp
1,Cc1ccc([C@H]2C[C@@H](C(F)(F)F)n3ncc(C(=O)NCc4ccc(F)cc4)c3N2)nc1,1.9
2,Cc1ccc([C@H]2C[C@@H](C(F)(F)F)n3ncc(C(=O)NCc4ccc(F)cc4)c3N2)cc1,3.2

# Test system: not listed separately
# Experiment: Cmax in mouse at 25 mg/kg, po
# Type: ADME, organism-based
# Design: dose 25 mg/kg, route oral
# Details: in vivo
row,SMILES,Cmax
1,Cc1ccc([C@H]2C[C@@H](C(F)(F)F)n3ncc(C(=O)NCc4ccc(F)cc4)c3N2)nc1,3.6 µM
2,Cc1ccc([C@H]2C[C@@H](C(F)(F)F)n3ncc(C(=O)NCc4ccc(F)cc4)c3N2)cc1,3.6 µM

# Test system: Mycobacterium tuberculosis
# Experiment: Antitubercular activity against Mycobacterium tuberculosis H37Rv ATCC 27294 […]
# Type: functional
# Details: not given
row,SMILES,MIC
1,COCCOc1ccc([C@H]2C[C@@H](C(F)(F)F)n3ncc(C(=O)NCc4ccc(F)cn4)c3N2)cc1,3.7 µM
2,COc1ccc(CNC(=O)c2cnn3c2N[C@@H](c2ccc(C)cc2)C[C@H]3C(F)(F)F)cn1,0.47 µM
3,Cc1ccc([C@H]2C[C@@H](C(F)(F)F)n3ncc(C(=O)NCc4ccc(F)cc4)c3N2)nc1,0.44 µM
4,Cc1ccc([C@H]2C[C@@H](C(F)(F)F)n3ncc(C(=O)NCc4ccc(F)cc4)c3N2)o1,0.13 µM
5,Cc1ccc([C@H]2C[C@@H](C(F)(F)F)n3ncc(C(=O)NCc4ccc(F)cc4)c3N2)cc1,0.15 µM

# Test system: not listed separately
# Experiment: Plasma protein binding in mouse
# Type: ADME, cell-free
# Details: read-out: PPB (converted)
row,SMILES,fraction unbound
1,COCCOc1ccc([C@H]2C[C@@H](C(F)(F)F)n3ncc(C(=O)NCc4ccc(F)cn4)c3N2)cc1,0.108
2,COc1ccc(CNC(=O)c2cnn3c2N[C@@H](c2ccc(C)cc2)C[C@H]3C(F)(F)F)cn1,< 0.01
3,Cc1ccc([C@H]2C[C@@H](C(F)(F)F)n3ncc(C(=O)NCc4ccc(F)cc4)c3N2)nc1,0.042
4,Cc1ccc([C@H]2C[C@@H](C(F)(F)F)n3ncc(C(=O)NCc4ccc(F)cc4)c3N2)o1,< 0.01
5,Cc1ccc([C@H]2C[C@@H](C(F)(F)F)n3ncc(C(=O)NCc4ccc(F)cc4)c3N2)cc1,< 0.01

# Target: Cytochrome P450 3A5 (Homo sapiens, UniProt P20815)
# Experiment: Inhibition of CYP3A5 in human liver microsomes using midazolam as substrate by LC-MS/MS analysis
# Type: ADME, Microsome
# Details: not given
# Sequence of Cytochrome P450 3A5 (P20815 whole entry): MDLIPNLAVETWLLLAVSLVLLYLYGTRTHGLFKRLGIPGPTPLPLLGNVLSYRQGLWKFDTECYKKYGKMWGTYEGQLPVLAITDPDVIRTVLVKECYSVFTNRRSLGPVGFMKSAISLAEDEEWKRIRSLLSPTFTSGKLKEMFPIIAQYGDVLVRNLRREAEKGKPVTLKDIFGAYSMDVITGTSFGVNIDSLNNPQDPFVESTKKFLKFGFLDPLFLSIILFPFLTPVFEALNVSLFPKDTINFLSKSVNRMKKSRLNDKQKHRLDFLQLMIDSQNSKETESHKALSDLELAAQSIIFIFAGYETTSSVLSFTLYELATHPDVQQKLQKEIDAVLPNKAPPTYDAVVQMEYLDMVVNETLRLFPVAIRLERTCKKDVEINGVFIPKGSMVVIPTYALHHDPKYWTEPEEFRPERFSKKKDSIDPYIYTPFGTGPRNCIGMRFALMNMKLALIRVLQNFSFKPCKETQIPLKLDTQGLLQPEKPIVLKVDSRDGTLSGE
row,SMILES,inhibition (INH)
1,Cc1ccc([C@H]2C[C@@H](C(F)(F)F)n3ncc(C(=O)NCc4ccc(F)cc4)c3N2)nc1,Not Active
2,Cc1ccc([C@H]2C[C@@H](C(F)(F)F)n3ncc(C(=O)NCc4ccc(F)cc4)c3N2)cc1,Not Active

# Test system: not listed separately
# Experiment: Ratio of AUC in mouse lung to AUC in mouse plasma at 25 mg/kg, po
# Type: ADME, organism-based
# Design: dose 25 mg/kg, route oral
# Details: read-out: Ratio AUC
row,SMILES,Kp
1,Cc1ccc([C@H]2C[C@@H](C(F)(F)F)n3ncc(C(=O)NCc4ccc(F)cc4)c3N2)nc1,2.1
2,Cc1ccc([C@H]2C[C@@H](C(F)(F)F)n3ncc(C(=O)NCc4ccc(F)cc4)c3N2)cc1,4.5

# Test system: not listed separately
# Experiment: Clearance in mouse at 5 mg/kg, iv
# Type: ADME, organism-based
# Design: dose 5 mg/kg, route intravenous
# Details: in vivo
row,SMILES,clearance
1,Cc1ccc([C@H]2C[C@@H](C(F)(F)F)n3ncc(C(=O)NCc4ccc(F)cc4)c3N2)nc1,38 mL/min/kg
2,Cc1ccc([C@H]2C[C@@H](C(F)(F)F)n3ncc(C(=O)NCc4ccc(F)cc4)c3N2)cc1,31 mL/min/kg

# Test system: not listed separately
# Experiment: AUC in mouse at 200 mg/kg, po
# Type: ADME, organism-based
# Design: dose 200 mg/kg, route oral
# Details: plasma
row,SMILES,AUC
1,Cc1ccc([C@H]2C[C@@H](C(F)(F)F)n3ncc(C(=O)NCc4ccc(F)cc4)c3N2)nc1,91.9 µM·h

# Test system: not listed separately
# Experiment: Octanol-water partition coefficient, log P of the compound
# Type: physicochemical
# Details: not given
row,SMILES,logP
1,COCCOc1ccc([C@H]2C[C@@H](C(F)(F)F)n3ncc(C(=O)NCc4ccc(F)cn4)c3N2)cc1,3.2
2,COc1ccc(CNC(=O)c2cnn3c2N[C@@H](c2ccc(C)cc2)C[C@H]3C(F)(F)F)cn1,5.1
3,Cc1ccc([C@H]2C[C@@H](C(F)(F)F)n3ncc(C(=O)NCc4ccc(F)cc4)c3N2)nc1,4.4
4,Cc1ccc([C@H]2C[C@@H](C(F)(F)F)n3ncc(C(=O)NCc4ccc(F)cc4)c3N2)o1,5.5
5,Cc1ccc([C@H]2C[C@@H](C(F)(F)F)n3ncc(C(=O)NCc4ccc(F)cc4)c3N2)cc1,6.3

# Target: Cytochrome P450 2D6 (Homo sapiens, UniProt P10635)
# Experiment: Inhibition of CYP2D6 in human liver microsomes using bufuralol as substrate by LC-MS/MS analysis
# Type: ADME, Microsome
# Details: not given
# Sequence of Cytochrome P450 2D6 (P10635 whole entry): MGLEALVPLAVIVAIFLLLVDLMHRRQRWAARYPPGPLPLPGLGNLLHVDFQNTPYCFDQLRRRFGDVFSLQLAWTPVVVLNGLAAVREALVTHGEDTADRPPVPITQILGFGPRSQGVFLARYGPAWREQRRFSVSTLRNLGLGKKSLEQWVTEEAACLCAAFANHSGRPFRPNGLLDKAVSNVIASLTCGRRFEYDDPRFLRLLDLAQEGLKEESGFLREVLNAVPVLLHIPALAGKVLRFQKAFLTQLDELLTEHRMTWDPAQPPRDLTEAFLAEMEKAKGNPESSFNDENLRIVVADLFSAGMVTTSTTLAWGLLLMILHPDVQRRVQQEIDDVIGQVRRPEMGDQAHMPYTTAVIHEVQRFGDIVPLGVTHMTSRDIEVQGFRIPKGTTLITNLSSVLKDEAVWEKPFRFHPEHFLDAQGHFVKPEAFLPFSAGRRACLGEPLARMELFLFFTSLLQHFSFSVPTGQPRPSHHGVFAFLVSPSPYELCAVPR
row,SMILES,inhibition (INH)
1,Cc1ccc([C@H]2C[C@@H](C(F)(F)F)n3ncc(C(=O)NCc4ccc(F)cc4)c3N2)nc1,Not Active
2,Cc1ccc([C@H]2C[C@@H](C(F)(F)F)n3ncc(C(=O)NCc4ccc(F)cc4)c3N2)cc1,Not Active

# Target: Cytochrome P450 2C9 (Homo sapiens, UniProt P11712)
# Experiment: Inhibition of CYP2C9 in human liver microsomes using diclofenac as substrate by LC-MS/MS analysis
# Type: ADME, Microsome
# Details: not given
# Sequence of Cytochrome P450 2C9 (P11712 whole entry): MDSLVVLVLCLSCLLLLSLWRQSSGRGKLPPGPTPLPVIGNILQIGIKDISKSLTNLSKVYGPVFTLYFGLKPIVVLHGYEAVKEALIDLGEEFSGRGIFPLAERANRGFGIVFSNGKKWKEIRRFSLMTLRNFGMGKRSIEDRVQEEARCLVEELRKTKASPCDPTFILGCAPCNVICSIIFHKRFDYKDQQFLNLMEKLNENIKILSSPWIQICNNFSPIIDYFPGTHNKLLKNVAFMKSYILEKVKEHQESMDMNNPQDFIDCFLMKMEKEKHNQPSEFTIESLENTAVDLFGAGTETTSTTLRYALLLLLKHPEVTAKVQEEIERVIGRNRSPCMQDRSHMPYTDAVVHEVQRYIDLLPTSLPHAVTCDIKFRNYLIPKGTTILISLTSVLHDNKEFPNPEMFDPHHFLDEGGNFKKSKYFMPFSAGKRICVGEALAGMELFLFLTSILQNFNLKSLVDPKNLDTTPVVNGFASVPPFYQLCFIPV
row,SMILES,inhibition (INH)
1,Cc1ccc([C@H]2C[C@@H](C(F)(F)F)n3ncc(C(=O)NCc4ccc(F)cc4)c3N2)nc1,Not Active
2,Cc1ccc([C@H]2C[C@@H](C(F)(F)F)n3ncc(C(=O)NCc4ccc(F)cc4)c3N2)cc1,Not Active

# Test system: not listed separately
# Experiment: Oral bioavailability in mouse at 25 mg/kg
# Type: ADME, organism-based
# Details: in vivo
row,SMILES,bioavailability
1,Cc1ccc([C@H]2C[C@@H](C(F)(F)F)n3ncc(C(=O)NCc4ccc(F)cc4)c3N2)nc1,100%
2,Cc1ccc([C@H]2C[C@@H](C(F)(F)F)n3ncc(C(=O)NCc4ccc(F)cc4)c3N2)cc1,65%

# Target: Cytochrome P450 3A4 (Homo sapiens, UniProt P08684)
# Experiment: Inhibition of CYP3A4 in human liver microsomes using midazolam as substrate by LC-MS/MS analysis
# Type: ADME, Microsome
# Details: not given
# Sequence of Cytochrome P450 3A4 (P08684 whole entry): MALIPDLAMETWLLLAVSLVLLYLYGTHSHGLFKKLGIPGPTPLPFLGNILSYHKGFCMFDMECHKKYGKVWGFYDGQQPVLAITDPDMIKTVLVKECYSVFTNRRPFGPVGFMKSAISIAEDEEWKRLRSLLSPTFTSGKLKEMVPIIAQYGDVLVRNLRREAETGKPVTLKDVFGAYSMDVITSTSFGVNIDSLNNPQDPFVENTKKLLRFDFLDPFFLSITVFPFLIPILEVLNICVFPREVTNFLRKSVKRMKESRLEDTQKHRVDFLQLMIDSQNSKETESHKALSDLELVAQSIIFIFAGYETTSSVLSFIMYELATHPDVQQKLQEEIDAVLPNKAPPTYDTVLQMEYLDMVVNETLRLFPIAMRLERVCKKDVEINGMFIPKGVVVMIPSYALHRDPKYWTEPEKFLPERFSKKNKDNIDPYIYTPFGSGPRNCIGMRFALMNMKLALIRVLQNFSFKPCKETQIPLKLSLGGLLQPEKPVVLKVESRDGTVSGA
row,SMILES,inhibition (INH)
1,Cc1ccc([C@H]2C[C@@H](C(F)(F)F)n3ncc(C(=O)NCc4ccc(F)cc4)c3N2)nc1,Not Active
2,Cc1ccc([C@H]2C[C@@H](C(F)(F)F)n3ncc(C(=O)NCc4ccc(F)cc4)c3N2)cc1,Not Active

# Test system: not listed separately
# Experiment: Elimination half life in mouse at 5 mg/kg, iv
# Type: ADME, organism-based
# Design: dose 5 mg/kg, route intravenous
# Details: in vivo, read-out: beta t1/2 (converted)
row,SMILES,half-life
1,Cc1ccc([C@H]2C[C@@H](C(F)(F)F)n3ncc(C(=O)NCc4ccc(F)cc4)c3N2)nc1,1.3 h
2,Cc1ccc([C@H]2C[C@@H](C(F)(F)F)n3ncc(C(=O)NCc4ccc(F)cc4)c3N2)cc1,4.2 h

# Test system: not listed separately
# Experiment: AUC in mouse at 25 mg/kg, po
# Type: ADME, organism-based
# Design: dose 25 mg/kg, route oral
# Details: plasma
row,SMILES,AUC
1,Cc1ccc([C@H]2C[C@@H](C(F)(F)F)n3ncc(C(=O)NCc4ccc(F)cc4)c3N2)nc1,25 µM·h
2,Cc1ccc([C@H]2C[C@@H](C(F)(F)F)n3ncc(C(=O)NCc4ccc(F)cc4)c3N2)cc1,18.9 µM·h

# Test system: not listed separately
# Experiment: Volume of distribution at steady state in mouse at 5 mg/kg, iv
# Type: ADME, organism-based
# Design: dose 5 mg/kg, route intravenous
# Details: in vivo, read-out: Vdss
row,SMILES,Vd
1,Cc1ccc([C@H]2C[C@@H](C(F)(F)F)n3ncc(C(=O)NCc4ccc(F)cc4)c3N2)nc1,3.4 L/kg
2,Cc1ccc([C@H]2C[C@@H](C(F)(F)F)n3ncc(C(=O)NCc4ccc(F)cc4)c3N2)cc1,6.3 L/kg

# Test system: Mycobacterium tuberculosis
# Experiment: Bactericidal activity against Mycobacterium tuberculosis H37Rv ATCC 27294 infected in activated human THP1 cells
# Type: functional, organism-based
# Details: THP-1
row,SMILES,Activity
1,Cc1ccc([C@H]2C[C@@H](C(F)(F)F)n3ncc(C(=O)NCc4ccc(F)cc4)c3N2)cc1,Active

# Test system: not listed separately
# Experiment: AUC in mouse
# Type: ADME, organism-based
# Details: plasma
row,SMILES,AUC
1,Cc1ccc([C@H]2C[C@@H](C(F)(F)F)n3ncc(C(=O)NCc4ccc(F)cc4)c3N2)cc1,91.1 µM·h

# Test system: not listed separately
# Experiment: Cmax in mouse
# Type: ADME, organism-based
# Details: in vivo
row,SMILES,Cmax
1,Cc1ccc([C@H]2C[C@@H](C(F)(F)F)n3ncc(C(=O)NCc4ccc(F)cc4)c3N2)cc1,8.3 µM

# Test system: Mycobacterium tuberculosis
# Experiment: Antitubercular activity against Mycobacterium tuberculosis infected in BALB/c mouse assessed as reduction in log10CFU at 100 mg/kg, po qd administered 7 days post-infection for 28 days relative to control
# Type: functional
# Details: not given
SMILES,Activity,log10cfu
Cc1ccc([C@H]2C[C@@H](C(F)(F)F)n3ncc(C(=O)NCc4ccc(F)cc4)c3N2)nc1,inactive,–
Cc1ccc([C@H]2C[C@@H](C(F)(F)F)n3ncc(C(=O)NCc4ccc(F)cc4)c3N2)cc1,–,3.5
CC[C@@H](CO)NCCN[C@@H](CC)CO,Active,–

# Test system: not listed separately
# Experiment: Clearance in mouse liver microsomes
# Type: ADME, Microsome
# Details: read-out: CLH
row,SMILES,microsomal CLint
1,Cc1ccc([C@H]2C[C@@H](C(F)(F)F)n3ncc(C(=O)NCc4ccc(F)cc4)c3N2)nc1,71.8 µL/min/mg
2,Cc1ccc([C@H]2C[C@@H](C(F)(F)F)n3ncc(C(=O)NCc4ccc(F)cc4)c3N2)cc1,43.5 µL/min/mg

# Test system: not listed separately
# Experiment: Cmax in mouse at 200 mg/kg, po
# Type: ADME, organism-based
# Design: dose 200 mg/kg, route oral
# Details: in vivo
row,SMILES,Cmax
1,Cc1ccc([C@H]2C[C@@H](C(F)(F)F)n3ncc(C(=O)NCc4ccc(F)cc4)c3N2)nc1,11.8 µM

# Target: T1, Nuclear receptor subfamily 1 group I member 2 (Homo sapiens, UniProt O75469)
# T1 sequence (O75469 whole entry): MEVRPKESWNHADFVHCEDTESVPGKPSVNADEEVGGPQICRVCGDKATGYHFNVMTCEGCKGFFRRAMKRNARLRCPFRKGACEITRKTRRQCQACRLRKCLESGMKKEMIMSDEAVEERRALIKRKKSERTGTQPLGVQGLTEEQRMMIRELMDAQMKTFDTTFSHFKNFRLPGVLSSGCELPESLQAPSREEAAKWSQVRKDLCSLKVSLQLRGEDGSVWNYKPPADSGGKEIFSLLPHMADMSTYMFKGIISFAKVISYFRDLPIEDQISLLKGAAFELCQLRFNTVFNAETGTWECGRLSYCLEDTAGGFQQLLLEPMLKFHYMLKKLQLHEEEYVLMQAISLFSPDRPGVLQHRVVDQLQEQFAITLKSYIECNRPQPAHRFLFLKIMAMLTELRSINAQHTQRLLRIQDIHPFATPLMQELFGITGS
# Experiment: Induction of PXR-mediated CYP3A4 expression in human DPX2 cells after 24 hrs by luciferase reporter gene assay
# Type: cell-based
# Details: dpx2, 24 h
row,SMILES,Activity
1,Cc1ccc([C@H]2C[C@@H](C(F)(F)F)n3ncc(C(=O)NCc4ccc(F)cc4)c3N2)nc1,Not Active
2,Cc1ccc([C@H]2C[C@@H](C(F)(F)F)n3ncc(C(=O)NCc4ccc(F)cc4)c3N2)cc1,Not Active

# Test system: not listed separately
# Experiment: Aqueous solubility of the compound at pH 6.8
# Type: physicochemical
# Details: not given
row,SMILES,solubility
1,COCCOc1ccc([C@H]2C[C@@H](C(F)(F)F)n3ncc(C(=O)NCc4ccc(F)cn4)c3N2)cc1,20 µM
2,COc1ccc(CNC(=O)c2cnn3c2N[C@@H](c2ccc(C)cc2)C[C@H]3C(F)(F)F)cn1,< 4 µM
3,Cc1ccc([C@H]2C[C@@H](C(F)(F)F)n3ncc(C(=O)NCc4ccc(F)cc4)c3N2)nc1,9 µM
4,Cc1ccc([C@H]2C[C@@H](C(F)(F)F)n3ncc(C(=O)NCc4ccc(F)cc4)c3N2)o1,< 4 µM
5,Cc1ccc([C@H]2C[C@@H](C(F)(F)F)n3ncc(C(=O)NCc4ccc(F)cc4)c3N2)cc1,< 4 µM
